{"source": "ChEMBL document CHEMBL2074509", "about": "“Uptake and efflux of the peptidic delta-opioid receptor agonist” (Neurosci Lett, 2001)", "biological_target": "ATP-dependent translocase ABCB1 (Mus musculus, UniProt P21447)", "sequence (P21447 whole entry, the tested form may be a part)": "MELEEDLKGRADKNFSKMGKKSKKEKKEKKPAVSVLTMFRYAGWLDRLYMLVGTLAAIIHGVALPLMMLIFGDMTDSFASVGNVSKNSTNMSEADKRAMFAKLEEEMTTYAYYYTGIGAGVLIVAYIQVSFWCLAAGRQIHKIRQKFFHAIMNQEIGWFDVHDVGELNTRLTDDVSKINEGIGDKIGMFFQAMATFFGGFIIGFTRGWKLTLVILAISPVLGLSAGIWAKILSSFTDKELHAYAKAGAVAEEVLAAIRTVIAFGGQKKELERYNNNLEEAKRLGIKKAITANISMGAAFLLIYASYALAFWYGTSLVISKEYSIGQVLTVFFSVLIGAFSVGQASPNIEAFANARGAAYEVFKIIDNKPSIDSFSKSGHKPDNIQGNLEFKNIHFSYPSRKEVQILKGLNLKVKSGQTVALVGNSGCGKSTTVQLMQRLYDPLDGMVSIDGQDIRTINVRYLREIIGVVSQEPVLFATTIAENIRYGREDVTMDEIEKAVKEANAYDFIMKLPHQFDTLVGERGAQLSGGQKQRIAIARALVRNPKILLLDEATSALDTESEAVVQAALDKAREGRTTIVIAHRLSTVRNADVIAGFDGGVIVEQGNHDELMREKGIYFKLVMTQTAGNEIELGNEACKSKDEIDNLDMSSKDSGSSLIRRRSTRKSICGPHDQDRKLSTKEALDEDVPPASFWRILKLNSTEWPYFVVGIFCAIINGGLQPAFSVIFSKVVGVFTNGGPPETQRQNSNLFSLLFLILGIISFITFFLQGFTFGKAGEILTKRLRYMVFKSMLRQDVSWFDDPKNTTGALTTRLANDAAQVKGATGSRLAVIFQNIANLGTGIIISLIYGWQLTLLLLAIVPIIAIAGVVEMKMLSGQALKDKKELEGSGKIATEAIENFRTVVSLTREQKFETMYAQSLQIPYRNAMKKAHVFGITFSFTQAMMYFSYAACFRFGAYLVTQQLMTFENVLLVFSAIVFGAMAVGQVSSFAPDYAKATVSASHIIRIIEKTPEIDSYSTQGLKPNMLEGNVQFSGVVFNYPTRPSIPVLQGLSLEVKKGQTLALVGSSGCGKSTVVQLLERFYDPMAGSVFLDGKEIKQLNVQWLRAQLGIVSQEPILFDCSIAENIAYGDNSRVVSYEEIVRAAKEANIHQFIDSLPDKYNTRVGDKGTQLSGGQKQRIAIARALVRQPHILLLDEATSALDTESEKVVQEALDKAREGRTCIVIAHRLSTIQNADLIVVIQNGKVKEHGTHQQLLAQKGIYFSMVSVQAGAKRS", "assay": "TP_TRANSPORTER: in situ brain perfusion in mdr1a(-/-) mouse", "type": "functional, organism-based", "conditions": "in vivo"}
{"smiles": "CC1(C)SSC(C)(C)[C@@H](NC(=O)[C@@H](N)Cc2ccc(O)cc2)C(=O)NCC(=O)N[C@@H](Cc2ccccc2)C(=O)N[C@H]1C(=O)O", "values": [{"measurement": "Activity", "result": "substrate [+]"}]}
